# Reference: patent publication US20120122843A1, “Compounds and Their Use for Treatment of Amyloid Beta-Related Diseases” (ASTRAZENECA AB, priority 2010, published 2012)
# Columns and labels:
# [1] = tested on: Aβ42; assay: Aβ42 release from HEK cells stably expressing APPswe (MSD electrochemiluminescence); format: cell-based, Human; settings: 4-6 h incubation with test compound, Aβ42 secreted to cell medium
# Protocol: The level of activity of the compounds on Aβ formation was tested using the following method:
# Compounds were diluted in 100% DMSO and stored at […] prior to use. Human Embryonic Kidney (HEK) cell line stably expressing APP with the Swedish mutation (APPswe) were cultured using Dulbecco's Modified Eagles medium (DMEM) supplied with […] glucose, Na-pyruvate and GlutaMAX with 10% FBS, 100 U/ml penicillin-streptomycin (PEST) respectively, 1× non-essential amino acids (NEAA), […] Hepes, 100 μg/ml Zeocine. Cells at about 80% confluence were washed with PBS, detached from culture flasks using 1× Trypsin/EDTA diluted in PBS, re-suspended in cell media and plated in 384-well poly-d-lysine coated cell culture plates at about 10000-15000 cells/well, in 25 μL cell media. Optionally, cryo-preserved cells (frozen and stored at −140° C. in 90% cell media and 10% DMSO) were thawed, washed and plated as above. Next the cells were incubated for 15-24 h at 37° C. and 5% CO2, after which cell medium was changed. Fresh medium containing test compound diluted ×200 from prepared compound plate was added to the cells before further incubation for 4-6 hours at 37° C. and 5% CO2. After incubation with test compound the amount of Aβ peptides, including Aβ42, Aβ40, Aβ39, Aβ38 and Aβ37, as well as total Aβ levels, secreted to cell medium was analyzed using the electrochemiluminescence assay technology from Meso Scale Discovery (MSD), in combination with specific antibodies raised against the different Aβ peptides. Aβ42, Aβ40 and Aβ38 antibodies were purchased from MSD and Aβ37 and Aβ39 were made in house. Total Aβ was measured using a combination of 6E10 and 4G8 anti Aβ antibodies from MSD. Potential cytotoxic effects of the compounds were usually assayed by measuring the ATP content (ViaLight) from cell lysate.
# [2] = tested on: Notch; assay: Release and translocation of Notch intracellular domain into the nucleus, HEK/AENotch cells (NICD immunostaining, ImageXpress); format: cell-based, Human; settings: 3 μM Lactacystin, 4-6 h incubation, nucleus/cytosol NICD fluorescence ratio
# Protocol: The level of activity of the compounds on release and translocation of Notch intracellular domain into the cell nucleus was tested using the following method:
# Compounds were diluted in 100% DMSO and stored at […] prior to use. Human Embryonic Kidney cell line overexpressing Notchl-E-human-myc construct (referred to as HEK/AENotch) were cultured in T75 cm^2 or T225 cm^2 cell culture flasks using Dulbecco's Modified Eagles medium (DMEM) supplemented with […] glucose, Na-pyruvate and GlutaMAX with 10% FBS, 100 U/ml penicillin-streptomycin (PEST) respectively, 1× non-essential amino acids (NEAA), […] Hepes and 100 μg/ml Hygromycin. Cells at about 80% confluence were washed with PBS, detached from the flask bottom using 1× Trypsin/EDTA diluted in PBS, re-suspended in cell media and plated in 384-well plates at about 10000 cells/well, in 25 μL cell media. Optionally, cryo-preserved cells (frozen and stored at −140° C. in 90% cell media and 10% DMSO) were thawed, washed and plated as above. Next the cells were incubated for 15-24 h at 37° C. and 5% CO2, after which cell medium was replaced with fresh medium containing 3 μM Lactacystin and test compound diluted ×200 from prepared compound plate giving 0.5% final DMSO concentration, and the highest compound concentration typically 25 μM. Cells were then incubated 4-6 h with test compound before being fixed, washed and immunostained with NICD antibody (rabbit Notch 1 (C-20)). Image acquisition of cytosolic/membrane and nuclear fluorescence as well as subsequent analysis of the nucleus and cytosolic fluorescence ratio was carried out using ImageXpress. Potential cytotoxic effects of the compounds were usually assayed by analysis of nucleus area or cell number.
# [3] = Homo sapiens, HEK293, HEK cells expressing APPswe
"IC50 [1, 3] [nM]",IC50 ([1]; HEK cells expressing APPswe) [nM],SMILES,IC50 ([2]; Homo sapiens) [µM],IC50 [2] [µM]
18,–,"COc1nc(Nc2ccc3c(n2)OC(CC(F)(F)F)CN(C)C3)ccc1-n1cnc(C)c1 (stereo not shown) [Example 6, N-(6-Methoxy-5-(4-methyl-1H-imidazol-1-yl)pyridin-2-yl)-4-methyl-2-(2,2,2-trifluoroethyl)-2,3,4,5-tetrahydropyrido[3,2-f][1,4]oxazepin-8-amine]",> 7.9,–
–,9,"COc1nc(Nc2ccc3c(n2)OC(CC(CF)CF)CN(C)C3)ccc1-n1cnc(C)c1 (single isomer, unassigned; (-)) [Example 68, (−)-[8-(3-Fluoro-2-fluoromethyl-propyl)-6-methyl-5,6,7,8-tetrahydro-9-oxa-1,6-diaza-benzocyclohepten-2-yl]-[6-methoxy-5-(4-methyl-imidazol-1-yl)-pyridin-2-yl]-amine]",–,> 25
–,91,"COc1nc(Nc2ccc3c(n2)OC(C2CC2)CN(C)C3C)ccc1-c1cnn(C)c1 (single isomer, unassigned) [Example 20, 2-Cyclopropyl-N-(6-methoxy-5-(1-methyl-1H-pyrazol-4-yl)pyridin-2-yl)-4,5-dimethyl-2,3,4,5-tetrahydropyrido[3,2-f][1,4]oxazepin-8-amine]",–,> 7.9
–,11,"COc1nc(Nc2ccc3c(n2)O[C@H](c2ccc(F)cn2)CN(C)C3C)ccc1-n1cnc(C)c1 (single isomer, unassigned; (-)) [Example 53]",–,> 7.9
–,38,"COc1nc(Nc2ccc3c(n2)OC(c2ncc(C)s2)CN(C)C3)ccc1-n1cnc(C)c1 (single isomer, unassigned; (+)) [Example 66, (+)-N-(6-Methoxy-5-(4-methyl-1H-imidazol-1-yl)pyridin-2-yl)-4-methyl-2-(5-methylthiazol-2-yl)-2,3,4,5-tetrahydropyrido[3,2-f][1,4]oxazepin-8-amine]",–,> 25
9,–,"COc1nc(Nc2ccc3c(n2)OC(c2ncc(C)s2)CN(C)C3)ccc1-n1cnc(C)c1 (stereo not shown) [Example 40, N-(6-Methoxy-5-(4-methyl-1H-imidazol-1-yl)pyridin-2-yl)-4-methyl-2-(5-methylthiazol-2-yl)-2,3,4,5-tetrahydropyrido[3,2-f][1,4]oxazepin-8-amine]",3.64,–
–,14,"COc1nc(Nc2ccc3c(n2)OC(C2CC2)CN(C)C3C)ccc1-c1cnn(C)c1 (single isomer, unassigned) [Example 17, 2-Cyclopropyl-N-(6-methoxy-5-(1-methyl-1H-pyrazol-4-yl)pyridin-2-yl)-4,5-dimethyl-2,3,4,5-tetrahydropyrido[3,2-f][1,4]oxazepin-8-amine]",> 7.9,–

# The next lines start with the compound.
SMILES,"IC50 [1, 3] [nM]",IC50 ([1]; HEK cells expressing APPswe) [nM],IC50 ([2]; Homo sapiens) [µM],IC50 [2] [µM]
"Cc1cn(-c2ccc(Nc3ccc4c(n3)O[C@H](c3ccccc3)CN(C)C4)nc2)cn1 [Example 14, (R)-4-Methyl-N-(5-(4-methyl-1H-imidazol-1-yl)pyridin-2-yl)-2-phenyl-2,3,4,5-tetrahydropyrido[3,2-f][1,4]oxazepin-8-amine]",24,–,> 50,–
"COc1nc(Nc2cc(C)c3c(n2)OC(CC(F)(F)F)CN(C)C3)ccc1-c1cnn(C)c1 (stereo not shown) [Example 2, N-(6-Methoxy-5-(1-methyl-1H-pyrazol-4-yl)pyridin-2-yl)-4,6-dimethyl-2-(2,2,2-trifluoroethyl)-2,3,4,5-tetrahydropyrido[3,2-f][1,4]oxazepin-8-amine]",23,–,1.14,–
"COc1nc(Nc2ccc3c(n2)OC(CC(F)(F)F)CN(C)C3)ccc1-c1cnn(C)c1 (stereo not shown) [Example 3, N-(6-Methoxy-5-(1-methyl-1H-pyrazol-4-yl)pyridin-2-yl)-4-methyl-2-(2,2,2-trifluoroethyl)-2,3,4,5-tetrahydropyrido[3,2-f][1,4]oxazepin-8-amine]",17,–,> 25,–
"COc1nc(Nc2ccc3c(n2)OC(CC(F)(F)F)CN(C)C3C)ccc1-c1cnn(C)c1 (single isomer, unassigned) [Example 35, N-(6-Methoxy-5-(1-methyl-1H-pyrazol-4-yl)pyridin-2-yl)-4,5-dimethyl-2-(2,2,2-trifluoroethyl)-2,3,4,5-tetrahydropyrido[3,2-f][1,4]oxazepin-8-amine]",–,12,–,> 25
"COc1nc(Nc2ccc3c(n2)OC(c2nc(C)cs2)C(C)N(C)C3)ccc1-c1cnn(C)c1 (single isomer, unassigned) [Example 30, N-(6-Methoxy-5-(1-methyl-1H-pyrazol-4-yl)pyridin-2-yl)-3,4-dimethyl-2-(4-methylthiazol-2-yl)-2,3,4,5-tetrahydropyrido[3,2-f][1,4]oxazepin-8-amine]",–,7,–,> 25
"COc1nc(Nc2ccc3c(n2)OC(CC(F)(F)F)CN(C)C3)ccc1-c1ccnc(C)n1 (stereo not shown) [Example 46, N-[6-Methoxy-5-(2-methylpyrimidin-4-yl)-2-pyridyl]-4-methyl-2-(2,2,2-trifluoroethyl)-3,5-dihydro-2H-pyrido[3,2-f][1,4]oxazepin-8-amine]",33,–,> 25,–
"COc1nc(Nc2cc(C)c3c(n2)OC(C2CCCO2)CN(C)C3)ccc1-c1cnn(C)c1 (single isomer, unassigned) [Example 26, N-(6-Methoxy-5-(1-methyl-1H-pyrazol-4-yl)pyridin-2-yl)-4,6-dimethyl-2-(tetrahydrofuran-2-yl)-2,3,4,5-tetrahydropyrido[3,2-f][1,4]oxazepin-8-amine]",–,56,–,> 7.9
"COc1nc(Nc2ccc3c(n2)OC(c2ncc(C)s2)CN(C)C3)ccc1-c1cnn(C)c1 (stereo not shown) [Example 39, N-(6-Methoxy-5-(1-methyl-1H-pyrazol-4-yl)pyridin-2-yl)-4-methyl-2-(5-methylthiazol-2-yl)-2,3,4,5-tetrahydropyrido[3,2-f][1,4]oxazepin-8-amine]",28,–,> 25,–
"COc1nc(Nc2ccc3c(n2)OC(CC(F)(F)F)CN(C)C3)ccc1-c1cnc(C)o1 (stereo not shown) [Example 47, N-[6-Methoxy-5-(2-methyloxazol-5-yl)-2-pyridyl]-4-methyl-2-(2,2,2-trifluoroethyl)-3,5-dihydro-2H-pyrido[3,2-f][1,4]oxazepin-8-amine]",4,–,> 25,–
"COc1nc(Nc2ccc3c(n2)OC(CC(F)(F)F)CN(C)C3)ccc1-c1cc(C)ncn1 (stereo not shown) [Example 7, [6-Methoxy-5-(6-methyl-pyrimidin-4-yl)-pyridin-2-yl]-[6-methyl-8-(2,2,2-trifluoro-ethyl)-5,6,7,8-tetrahydro-9-oxa-1,6-diaza-benzocyclohepten-2-yl]-amine]",135,–,> 25,–
"COc1nc(Nc2ccc3c(n2)OC(c2nc(C)cs2)CN(C)C3)ccc1-c1cnn(C)c1 (stereo not shown) [Example 9, N-(6-Methoxy-5-(1-methyl-1H-pyrazol-4-yl)pyridin-2-yl)-4-methyl-2-(4-methylthiazol-2-yl)-2,3,4,5-tetrahydropyrido[3,2-f][1,4]oxazepin-8-amine]",19,–,> 15.8,–
"COc1nc(Nc2ccc3c(n2)OC(C2CC(F)(F)C2)CN(C)C3)ccc1-c1cnn(C)c1 (single isomer, unassigned) [Example 38, 2-(3,3-Difluorocyclobutyl)-N-(6-methoxy-5-(1-methyl-1H-pyrazol-4-yl)pyridin-2-yl)-4-methyl-2,3,4,5-tetrahydropyrido[3,2-f][1,4]oxazepin-8-amine]",–,15,–,> 25
"Cc1ncn(-c2ccc(Nc3ccc4c(n3)OC(c3ccc(Cl)cc3)CN(C)C4)nc2)n1 (stereo not shown) [Example 24, 2-(4-Chlorophenyl)-4-methyl-N-(5-(3-methyl-1H-1,2,4-triazol-1-yl)pyridin-2-yl)-2,3,4,5-tetrahydropyrido[3,2-f][1,4]oxazepin-8-amine]",81,–,> 7.9,–
